Experimental data: patent publication US11833147B2, “Procaspase 3 activation by combination therapy” (The Board of Trustees of the University of Illinois, priority 2012, dated 2023)

Assays:
[1] = more active than irinotecan itself; cited from earlier work
U-937 (lymphoma) cells = assay: U-937 (lymphoma) cell death, PAC-1 with second agent; assay type: cell-based; details: 0-15 μM PAC-1, 0 nM second agent, 8 hours, FIG. 4
Procedure: FIG. 2. Effects of PAC-1 with Etoposide on U-937 (lymphoma) cell death. Dashed lines represent the level of purely additive effects.
FIG. 3. Effects of PAC-1 with Velcade® (bortezomib) on U-937 (lymphoma) cell death. […] Cell death was measured after 6 hours in bortezomib.
FIG. 4. Effects of PAC-1 with staurosporine on U-937 (lymphoma) cell death. […] Cell death was measured after 8 hours in staurosporine.

[2] = in mammals; cited from earlier work

Row | Compound | activity relative to irinotecan [1] | cell death with PAC-1 alone (U-937 (lymphoma) cells) | safety [2]
1 | CCc1c2c(nc3ccc(O)cc13)-c1cc3c(c(=O)n1C2)COC(=O)[C@]3(O)CC [SN-38] | 200 times |  | 
2 | C=CCc1cccc(/C=N/NC(=O)CN2CCN(Cc3ccccc3)CC2)c1O [PAC-1, 2-(4-benzylpiperazin-1-yl)-N-[(2-hydroxy-3-prop-2-enyl-phenyl)methylideneamino]acetamide] |  | Little or no cell death | safe
